pIC50: −log10 of the molar value.
Columns and labels:
[1] = system: HDACs (HeLa cell nuclear extracts); experiment: HDAC enzymatic activity, Biomol Color de Lys system; assay type: biochemical; conditions: 1 hour, 25° C.
How it was run: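 HeLa nuclear extract incubated with serially diluted compound and […] artificial substrate in 50 mM Tris/Cl pH 8.0, 137 mM NaCl, 2.7 mM KCl, 1 mM MgCl2. Run 1 h at 25 °C, stopped with developer. Fluorescence read (ex 350-380, em 440-460 nm); IC50 from sigmoidal dose-response fit.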

Calu6 = experiment: Cell proliferation assay (CellTiter-Glo); assay type: cell-based; conditions: Homo sapiens, Calu-6; NSCLC; 72 hours, 0.5% fetal bovine serum; read-out: antiproliferative activity IC50, Calu6
Description: (§1) Cell Proliferation Assay:
(§2) Cancer cell lines were plated at 5,000 to 10,000 per well in 96-well flat bottomed plates with various concentration of compounds. The cells were incubated with compounds for 72 hours in the presence of 0.5% of fetal bovine serum. Growth inhibition was accessed by adenosine triphosphate (ATP) content assay using Promega CellTiter-Glo kit. Promega CellTiter-Glo kit is an ATP monitoring system based on firefly luciferase. Briefly, 16 μl of mammalian cell lysis and substrate solution was added to 84 μl of culture medium per well to lyse the cells and stabilize the ATP. The mixture was shaken and incubated for 30 minutes and subsequently the luminescence was measured.

CaPan2 = experiment: Cell proliferation assay (CellTiter-Glo); assay type: cell-based; conditions: Homo sapiens, Capan-2; Pancreas; 72 hours, 0.5% fetal bovine serum; read-out: antiproliferative activity IC50, CaPan2
Description: as §1, §2

SW1990 = experiment: Cell proliferation assay (CellTiter-Glo); assay type: cell-based; conditions: Homo sapiens, Pancreas, 72 hours, 0.5% fetal bovine serum, read-out: antiproliferative activity IC50, SW1990
Description: as §1, §2

MiaPaca1 = experiment: Cell proliferation assay (CellTiter-Glo); assay type: cell-based; conditions: Pancreas; 72 hours, 0.5% fetal bovine serum; read-out: antiproliferative activity IC50, MiaPaca1
Description: as §1, §2

PANC-1 = experiment: Cell proliferation assay (CellTiter-Glo); assay type: cell-based; conditions: Homo sapiens, Pancreas, 72 hours, 0.5% fetal bovine serum, read-out: antiproliferative activity IC50, PANC-1
Description: as §1, §2

MDA-MB-231 = experiment: Cell proliferation assay (CellTiter-Glo); assay type: cell-based; conditions: Homo sapiens, Breast, 72 hours, 0.5% fetal bovine serum, read-out: antiproliferative activity IC50, MDA-MB-231
Description: as §1, §2

WiDr = experiment: Cell proliferation assay (CellTiter-Glo); assay type: cell-based; conditions: Homo sapiens, Colon, 72 hours, 0.5% fetal bovine serum, read-out: antiproliferative activity IC50, WiDr
Description: as §1, §2

PI3Kα (p110α/p85α) = target: T1, PI3Kα (p110α/p85α) (Homo sapiens, UniProt P42336); experiment: PI3Kα ADP-Glo assay; assay type: biochemical; conditions: 20 μM PIP2, 10 μM ATP, 30 minutes
T1 construct: GST (N); made in house; host or cells: Baculovirus-infected Sf9 cells
How it was run: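 Recombinant full-length human GST-p110α/His-p85α, co-expressed in Sf9 cells, was incubated 30 min at room temperature with 20 μM PIP2 and 10 μM ATP. The buffer was 50 mM HEPES pH 7.4, 150 mM NaCl, 5 mM MgCl2, 1 mM DTT, 3 µM orthovanadate and 0.5% DMSO. ADP formed was detected by ADP-Glo luminescence.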

HCT116 = experiment: Cell proliferation assay (CellTiter-Glo); assay type: cell-based; conditions: Homo sapiens, HCT-116; Colon; 72 hours, 0.5% fetal bovine serum; read-out: antiproliferative activity IC50, HCT116
Description: as §1, §2

[2] = target: T2, mTor serine/threonine protein kinase (Homo sapiens, UniProt P42345); experiment: mTor kinase radioisotope assay; assay type: biochemical; conditions: 70 uM ATP, 40 minutes; read-out: m-TOR IC50
T2 construct: FLAG; made in house; host or cells: Baculovirus expression system in Sf21 cells
Description: (F) an In Vitro Assay which-Determines the Ability of a Test Compound to Inhibit mTor Serine/Threonine Protein Kinase.
The ability of compounds to inhibit mTor activity was assayed using standard radioisotope assay for kinase. Briefly, FLAG-tagged, recombinant full-length human mTor (GenBank accession No. NM_004958) was expressed using baculovirus expression system in Sf21 cells and purified using antibody affinity column. Purified enzyme was incubated with c-terminal fragment of p70S6K as it's substrate in the presence of ATP. p33 ATP tracers were included in the assay to monitor the enzyme activity. Final assay condition was with 50 mM HEPES pH 7.5, 1 mM EGTA, 0.01% Tween 20, 2 mg/ml substrate, 3 mM Manganese Chloride and 70 uM of ATP and was carried out at room temperature for 40 minutes. The reaction was then stopped by the addition of 3% phosphoric acid solution. 10 ul of the reaction was spotted onto a P30 filtermat and washed three times for 5 minutes in 75 mM phosphoric acid and once in methanol prior to drying and scintillation counting. Different concentrations of compounds were added to reaction to assess the activity of compounds to inhibit mTor kinase. IC50 was calculated using Prism software with sigmoidal dose-response curve fitting.

CFPAC-1 = experiment: Cell proliferation assay (CellTiter-Glo); assay type: cell-based; conditions: Homo sapiens, Pancreas, 72 hours, 0.5% fetal bovine serum, read-out: antiproliferative activity IC50, CFPAC-1
Description: as §1, §2

T1 sequence (P42336 whole entry): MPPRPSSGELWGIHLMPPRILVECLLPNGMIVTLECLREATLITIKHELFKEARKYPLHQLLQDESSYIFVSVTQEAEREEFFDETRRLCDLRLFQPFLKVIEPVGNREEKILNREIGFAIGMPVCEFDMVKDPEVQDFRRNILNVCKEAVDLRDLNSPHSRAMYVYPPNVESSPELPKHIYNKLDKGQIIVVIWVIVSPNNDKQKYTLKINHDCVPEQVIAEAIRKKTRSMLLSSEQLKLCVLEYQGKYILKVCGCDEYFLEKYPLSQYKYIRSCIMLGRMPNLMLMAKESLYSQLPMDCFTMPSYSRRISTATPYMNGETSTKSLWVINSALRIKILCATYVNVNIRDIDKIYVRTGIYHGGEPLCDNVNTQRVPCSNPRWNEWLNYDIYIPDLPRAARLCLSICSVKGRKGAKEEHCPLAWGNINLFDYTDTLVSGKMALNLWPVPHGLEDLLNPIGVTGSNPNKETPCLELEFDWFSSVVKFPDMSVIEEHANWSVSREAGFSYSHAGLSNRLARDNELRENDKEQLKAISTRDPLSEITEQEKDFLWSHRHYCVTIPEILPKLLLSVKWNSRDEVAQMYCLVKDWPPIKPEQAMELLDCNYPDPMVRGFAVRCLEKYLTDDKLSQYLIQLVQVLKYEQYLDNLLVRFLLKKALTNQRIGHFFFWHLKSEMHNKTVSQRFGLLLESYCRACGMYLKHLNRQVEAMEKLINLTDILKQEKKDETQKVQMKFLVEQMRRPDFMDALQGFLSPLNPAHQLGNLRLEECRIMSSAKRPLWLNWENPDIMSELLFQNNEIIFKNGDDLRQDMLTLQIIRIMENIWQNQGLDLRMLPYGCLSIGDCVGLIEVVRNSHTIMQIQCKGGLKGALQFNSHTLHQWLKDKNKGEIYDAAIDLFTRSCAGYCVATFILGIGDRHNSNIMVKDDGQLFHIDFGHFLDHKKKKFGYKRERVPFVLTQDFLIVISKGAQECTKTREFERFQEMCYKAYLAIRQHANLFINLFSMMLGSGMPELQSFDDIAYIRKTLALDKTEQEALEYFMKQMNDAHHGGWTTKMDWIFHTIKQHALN
T1 sequence (P27986 whole entry partner): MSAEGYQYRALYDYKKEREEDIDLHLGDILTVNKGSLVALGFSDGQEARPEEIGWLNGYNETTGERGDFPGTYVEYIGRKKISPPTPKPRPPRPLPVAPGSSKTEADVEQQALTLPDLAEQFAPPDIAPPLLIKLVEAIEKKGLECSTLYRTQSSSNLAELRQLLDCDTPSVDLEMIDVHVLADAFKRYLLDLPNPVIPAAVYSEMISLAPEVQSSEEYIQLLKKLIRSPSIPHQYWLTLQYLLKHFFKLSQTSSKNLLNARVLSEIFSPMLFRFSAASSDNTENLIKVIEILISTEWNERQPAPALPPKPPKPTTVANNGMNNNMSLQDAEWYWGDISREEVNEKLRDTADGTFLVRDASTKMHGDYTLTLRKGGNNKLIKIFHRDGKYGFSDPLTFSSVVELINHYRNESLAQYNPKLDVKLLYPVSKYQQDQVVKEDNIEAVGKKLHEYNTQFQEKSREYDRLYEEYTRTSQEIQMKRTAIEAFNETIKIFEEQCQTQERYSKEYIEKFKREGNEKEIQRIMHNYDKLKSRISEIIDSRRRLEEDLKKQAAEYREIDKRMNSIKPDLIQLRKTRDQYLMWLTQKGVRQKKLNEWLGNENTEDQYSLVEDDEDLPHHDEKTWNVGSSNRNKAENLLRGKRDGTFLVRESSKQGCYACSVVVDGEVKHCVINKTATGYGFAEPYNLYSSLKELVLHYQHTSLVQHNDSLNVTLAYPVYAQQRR

Row | Structure (SMILES) | pIC50 [1] | pIC50 (Calu6) | pIC50 (SW1990) | pIC50 (MiaPaca1) | pIC50 (PANC-1) | pIC50 (MDA-MB-231) | melting point | pIC50 (PI3Kα (p110α/p85α)) | pIC50 (HCT116) | pIC50 [2] | pIC50 (CaPan2) | pIC50 (WiDr) | pIC50 (CFPAC-1)
1 | Cc1nc2ccc(-c3nc(N4CCOCC4)c4sc(CN(C)c5ncc(C(=O)NO)cn5)cc4n3)cc2[nH]1 [Compound 199, N-hydroxy-2-(methyl((2-(2-methyl-3H-benzo[d]imidazol-5-yl)-4-morpholinothieno[3,2-d]pyrimidin-6-yl)methyl)amino)pyrimidine-5-carboxamide] | > 7.00 | 6.00 to 7.00 | 7.00 to 8.00 | 7.00 to 8.00 | 6.00 to 7.00 | 7.00 to 8.00 | 230 to 233 °C | > 7.00 |  |  | 5.00 to 6.00 | 7.00 to 8.00 | 
2 | CC(=O)Nc1ccc(-c2nc(N3CCOCC3)c3sc(CN(C)c4ncc(C(=O)NO)cn4)cc3n2)cc1 [Compound 157, 2-(((2-(4-acetamidophenyl)-4-morpholinothieno[3,2-d]pyrimidin-6-yl)methyl)(methyl)amino)-N-hydroxypyrimidine-5-carboxamide] | > 7.00 | 7.00 to 8.00 |  |  |  |  | 228 to 230 °C | > 7.00 |  | > 7.00 |  | 6.00 to 7.00 | 
3 | CN(Cc1cc2nc(-c3cccnc3)nc(N3CCOCC3)c2s1)c1ncc(C(=O)NO)cn1 [Compound 109, N-hydroxy-2-(methyl((4-morpholino-2-(pyridin-3-yl)thieno[3,2-d]pyrimidin-6-yl)methyl)amino)pyrimidine-5-carboxamide] | > 7.00 |  |  |  |  |  | 160 to 164 °C | > 7.00 |  | 6.00 to 7.00 |  |  | 
4 | Cc1ncc(-c2nc(N3CCOCC3)c3sc(CN(C)c4ncc(C(=O)NO)cn4)cc3n2)cn1 [Compound 120, N-hydroxy-2-(methyl((2-(2-methylpyrimidin-5-yl)-4-morpholinothieno[3,2-d]pyrimidin-6-yl)methyl)amino)pyrimidine-5-carboxamide] | > 7.00 | 7.00 to 8.00 | 7.00 to 8.00 | 7.00 to 8.00 | 6.00 to 7.00 | 7.00 to 8.00 | 184 to 186 °C | > 7.00 |  | 6.00 to 7.00 | 6.00 to 7.00 | 7.00 to 8.00 | 6.00 to 7.00
5 | CN(Cc1cc2nc(-c3ccc4[nH]cnc4c3)nc(N3CCOCC3)c2s1)c1ncc(C(=O)NO)cn1 [Compound 187, 2-(((2-(1H-benzo[d]imidazol-5-yl)-4-morpholinothieno[3,2-d]pyrimidin-6-yl)methyl)(methyl)amino)-N-hydroxypyrimidine-5-carboxamide] | > 7.00 | 6.00 to 7.00 | 7.00 to 8.00 | 7.00 to 8.00 | 6.00 to 7.00 | 6.00 to 7.00 | 231 to 239 °C | > 7.00 |  |  | 6.00 to 7.00 | 7.00 to 8.00 | 6.00 to 7.00
6 | CN(Cc1cc2nc(-c3cc(F)cc4[nH]ncc34)nc(N3CCOCC3)c2s1)c1ncc(C(=O)NO)cn1 [Compound 69, 2-(((2-(6-fluoro-1H-indazol-4-yl)-4-morpholinothieno[3,2-d]pyrimidin-6-yl)methyl)(methyl)amino)-N-hydroxypyrimidine-5-carboxamide] | > 7.00 |  |  |  |  |  | 215 to 217 °C | > 7.00 |  | 5.00 to 6.00 |  |  | 

More lines, main results first:

Row | pIC50 [1] | pIC50 (Calu6) | pIC50 (SW1990) | pIC50 (MiaPaca1) | pIC50 (PANC-1) | pIC50 (MDA-MB-231) | melting point | pIC50 (PI3Kα (p110α/p85α)) | pIC50 (HCT116) | pIC50 [2] | Structure (SMILES) | pIC50 (CaPan2) | pIC50 (WiDr) | pIC50 (CFPAC-1)
7 | > 7.00 |  |  |  |  |  | 195 to 198 °C | > 7.00 | 7.00 to 8.00 |  | Cc1nc(N)ncc1-c1nc(N2CCOCC2)c2sc(CN(C)c3ncc(C(=O)NO)cn3)cc2n1 [Compound 125, 2-(((2-(2-amino-4-methylpyrimidin-5-yl)-4-morpholinothieno[3,2-d]pyrimidin-6-yl)methyl)(methyl)amino)-N-hydroxypyrimidine-5-carboxamide] |  |  | 
8 | > 7.00 | 7.00 to 8.00 | 7.00 to 8.00 | 7.00 to 8.00 | 7.00 to 8.00 | 7.00 to 8.00 | 183 to 187 °C | > 7.00 |  | > 7.00 | CNc1ncc(-c2nc(N3CCOCC3)c3sc(CN(C)c4ncc(C(=O)NO)cn4)cc3n2)cn1 [Compound 116, N-hydroxy-2-(methyl((2-(2-(methylamino)pyrimidin-5-yl)-4-morpholinothieno[3,2-d]pyrimidin-6-yl)methyl)amino)pyrimidine-5-carboxamide] | 7.00 to 8.00 | 7.00 to 8.00 | 6.00 to 7.00
9 | > 7.00 |  |  |  |  | 7.00 to 8.00 | 215 to 220 °C | > 7.00 |  |  | COc1ncc(-c2nc(N3CCOCC3)c3sc(CN(C)c4ncc(C(=O)NO)cn4)cc3n2)cn1 [Compound 261, N-Hydroxy-2-(((2-(2-methoxypyrimidin-5-yl)-4-morpholinothieno[3,2-d]pyrimidin-6-yl)methyl)(methyl)amino)pyrimidine-5-carboxamide] |  |  | 
10 | > 7.00 |  |  |  |  |  | 195 to 200 °C | > 7.00 |  | > 7.00 | CN(Cc1cc2nc(-c3ccc(N)c(CO)c3)nc(N3CCOCC3)c2s1)c1ncc(C(=O)NO)cn1 [Compound 285, 2-(((2-(4-Amino-3-(hydroxymethyl)phenyl)-4-morpholinothieno[3,2-d]pyrimidin-6-yl)methyl)(methyl)amino)-N-hydroxypyrimidine-5-carboxamide] |  |  | 
11 | > 7.00 | 7.00 to 8.00 |  |  |  | 7.00 to 8.00 | 175 to 181 °C | > 7.00 |  | > 7.00 | CN(Cc1cc2nc(-c3cccc(O)c3)nc(N3CCOCC3)c2s1)c1ncc(C(=O)NO)cn1 [Compound 132, N-hydroxy-2-(((2-(3-hydroxyphenyl)-4-morpholinothieno[3,2-d]pyrimidin-6-yl)methyl)(methyl)amino)pyrimidine-5-carboxamide] |  | 6.00 to 7.00 | 
12 | > 7.00 | 7.00 to 8.00 | 7.00 to 8.00 | 7.00 to 8.00 | 7.00 to 8.00 | 7.00 to 8.00 | 197 to 201 °C | > 7.00 |  |  | CC(=O)Nc1ccc(-c2nc(N3CCOCC3)c3sc(CN(C)c4ncc(C(=O)NO)cn4)cc3n2)cn1 [Compound 112, 2-(((2-(6-acetamidopyridin-3-yl)-4-morpholinothieno[3,2-d]pyrimidin-6-yl)methyl)(methyl)amino)-N-hydroxypyrimidine-5-carboxamide] | 6.00 to 7.00 | 6.00 to 7.00 | 6.00 to 7.00

— patent US20130102595A1 (Curis, Inc., priority 2011, published 2013)
